In patent US6831061B2, “Apicidin-derivatives, their synthetic methods and anti-tumor compositions containing them” (priority 2000, dated 2004):
Values after ≈ are worked out from the molar mass of the structure shown. Like-named read-outs stand apart in the source and are kept apart here.

How the values were obtained:
[1] = system: v-ras-transformed NIH3T3 (mouse fibroblast cell line); assay: Cell growth inhibition assay (SRB assay), v-ras-transformed NIH3T3; format: cell-based; conditions: NIH3T3, 48 h
Procedure: (§1) HeLa (human cervical cancer cell line), v-ras-transformed NIH3T3 (mouse fibroblast cell line), Colon 3.1-M26 (mouse colon cancer cell line), MG63 (human osteosarcoma cell line) and MCF-7 (human breast cancer cell line) cells were cultured in DMEM (Dulbecco's modified Eagle's medium, produced by Life Technologies, Inc.). A2058 (human melanoma cell line), AGS (human gastric adenocarcinoma cell line), HBL-100 (human breast cancer cell line), CCD-18Co (human normal colon cell line) and LL86 (human normal lung cell line) cells were cultured in RPMI 1640 (Life Technologies, Inc.) in the presence of 10% FBS and 1% penicillin/streptomycin.
(§2) A cell growth inhibition assay according to sulforhodamine B (SRB) protein dye assay was carried out to examine the effects of apicidin derivative prepared in the Examples on mouse and human cancer cells. The cells were placed in wells and during cultivation were treated with 0.01, 0.1, 0.5, 1, and 2 μg/mL of apicidin, SD9801, SD9802, SD9803, the compound of Example 1, the compound of Example 2 and the compound of Example 3.
(§3) After 48 hours of cultivation, the media were removed from the well plates. The cells were fixed with 1 mL of 10% trichloroacetic acid at 4° C. washed 5 times with distilled water and completely dried in the air. The wells were treated with 0.4% SRB solution and died for 30 minutes at an ambient temperature. Subsequently, the wells were washed 5 times with distilled water and dried for 18 hours. To the respective wells, Tris-HCl (1 mL, 10 mM) was added to dissolve the proteins bonded to SRB. The contents of each well were removed and measured for their absorption at 490 nm.

[2] = system: HeLa (human cervical cancer cell line); assay: Cell growth inhibition assay (SRB assay), HeLa; format: cell-based; conditions: 48 h, read-out: Growth inhibition IC50, HeLa cancer cells, SRB assay, 48 hours
Procedure: as §1, §2
(§4) After 48 hours of cultivation, the media were removed from the well plates. The cells were fixed with 1 mL of 10% trichloroacetic acid at 4° C. washed 5 times with distilled water and completely dried in the air. […] The contents of each well were removed and measured for their absorption at 490 nm.

[3] = system: CCD-18Co (human normal colon cell line); assay: Cell growth inhibition assay (SRB assay), CCD-18Co; format: cell-based; conditions: for IC50: Homo sapiens, CCD-18Co, 48 h; for IC50 / Growth inhibition IC50: CCD-18Co normal cells, SRB assay; for Growth inhibition IC50: 48 hours
Procedure: as §1, §2, §3

[4] = system: Colon 3.1-M26 (mouse colon cancer cell line); assay: Cell growth inhibition assay (SRB assay), Colon 3.1-M26; format: cell-based; conditions: for IC50: Mus musculus, 48 h
Procedure: as §1, §2, §3

[5] = system: HBL-100 (human breast cancer cell line); assay: Cell growth inhibition assay (SRB assay), HBL-100; format: cell-based; conditions: HBL-100, 48 h
Procedure: as §1, §2, §3

[6] = system: LL86 (human normal lung cell line); assay: Cell growth inhibition assay (SRB assay), LL86; format: cell-based
Procedure: as §1, §2, §3

[7] = system: MG63 (human osteosarcoma cell line); assay: Cell growth inhibition assay (SRB assay), MG63; format: cell-based; conditions: MG-63, 48 h, read-out: Growth inhibition IC50, MG63 cancer cells, SRB assay, 48 hours
Procedure: as §1, §2, §4

[8] = system: AGS (human gastric adenocarcinoma cell line); assay: Cell growth inhibition assay (SRB assay), AGS; format: cell-based; conditions: 48 h
Procedure: as §1, §2, §3

[9] = system: MCF-7 (human breast cancer cell line); assay: Cell growth inhibition assay (SRB assay), MCF-7; format: cell-based; conditions: MCF7, 48 h, read-out: Growth inhibition IC50, MCF-7 cancer cells, SRB assay, 48 hours
Procedure: as §1, §2, §4

[10] = system: A2058 (human melanoma cell line); assay: Cell growth inhibition assay (SRB assay), A2058; format: cell-based; conditions: for IC50: Homo sapiens, A2058, 48 h, read-out: Growth inhibition IC50, A2058 cancer cells, SRB assay, 48 hours
Procedure: as §1, §2, §3

[11] = system: Histone deacetylase purified from HeLa cells; assay: In vitro histone deacetylation assay; format: biochemical, human; conditions: [3H]acetyl histone substrate, 37° C., 20 minutes; read-out: Histone deacetylase inhibition IC50
Procedure: Histone deacetylase was purified from HeLa cells. The activity of histone deacetylase was measured according to a method known in the art—See, e.g., Inoue, A. et al., Biochem. Biophys. […] Here, histone with [^3H]acetyl group labeled with radio-active materials was used as a substrate for measurement of activity of histone deacetylase. After incubation at 37° C. for 20 minutes, [^3H]acetic acid released into medium was extracted with ethylacetate and quantified using a liquid radiation detection method.

[12] = read-out: Growth inhibition IC50, v-ras-transformed NIH3T3 cancer cells, SRB assay, 48 hours
[13] = read-out: Growth inhibition IC50, Colon 3.1-M26 cancer cells, SRB assay, 48 hours
[14] = read-out: Growth inhibition IC50, HBL-100 cancer cells, SRB assay, 48 hours
[15] = 48 h, read-out: Growth inhibition IC50, LL86 normal cells, SRB assay, 48 hours
[16] = read-out: Growth inhibition IC50, AGS cancer cells, SRB assay, 48 hours
[17] = Colon 3.1-M26 cancer cells, SRB assay, 48 hours
[18] = v-ras-transformed NIH3T3 cancer cells, SRB assay, 48 hours, read-out: Growth inhibition IC50
[19] = Colon 3.1-M26 cancer cells, SRB assay, 48 hours, read-out: Growth inhibition IC50
[20] = HBL-100 cancer cells, SRB assay, 48 hours, read-out: Growth inhibition IC50
[21] = LL86 normal cells, SRB assay, 48 hours, read-out: Growth inhibition IC50
[22] = AGS cancer cells, SRB assay, 48 hours, read-out: Growth inhibition IC50

| Structure (SMILES) | IC50 [1, 12] [µg/mL] | IC50 [2] [µg/mL] | IC50 [3] [µg/mL] | IC50 [4, 13] [µg/mL] | IC50 [5, 14] [µg/mL] | IC50 [6, 15] [µg/mL] | IC50 [7] [µg/mL] | IC50 [8, 16] [µg/mL] | IC50 [9] [µg/mL] | IC50 [10] [µg/mL] | IC50 [11] [nM] | times higher safety against normal cell growth than the parent compound, apicidin ([3]; normal cell growth) | Growth inhibition IC50 [4, 17] [µg/mL] | Growth inhibition IC50 ([10]; A2058 cancer cells, SRB assay, 48 hours) [µg/mL] | IC50 [1, 18] [µg/mL] | Growth inhibition IC50 [3] [µg/mL] | IC50 [4, 19] [µg/mL] | IC50 [5, 20] [µg/mL] | IC50 [6, 21] [µg/mL] | IC50 [8, 22] [µg/mL] |
| --- | --- | --- | --- | --- | --- | --- | --- | --- | --- | --- | --- | --- | --- | --- | --- | --- | --- | --- | --- | --- |
| CCC(=O)CCCCC[C@@H]1NC(=O)[C@H]2CCCCN2C(=O)[C@H]([C@@H](C)CC)NC(=O)[C@H](Cc2cn(OC)c3ccccc23)NC1=O [Apicidin, apicidin] | 0.18 (≈ 0.289 µM) | 0.51 (≈ 0.818 µM) | 2.36 (≈ 3.78 µM) | 0.17 (≈ 0.273 µM) | 0.57 (≈ 0.914 µM) | 4.25 (≈ 6.81 µM) | 1.88 (≈ 3.01 µM) | 0.13 (≈ 0.208 µM) | 1.17 (≈ 1.88 µM) | 0.55 (≈ 0.882 µM) | – | – | – | – | – | – | – | – | – | – |
| CCC(CCCCCC1NC(=O)C2CCCCN2C(=O)C(C(C)CC)NC(=O)C(Cc2cn(OC)c3ccccc23)NC1=O)=NNC(N)=O (stereo not shown) [Example 1, Semicarbazone Derivative of Apicidin] | < 0.2 | – | – | 0.2 to 2.07 (≈ 0.294 to 3.04 µM) | < 0.2 | – | – | < 0.2 | – | 0.2 to 2.07 (≈ 0.294 to 3.04 µM) | 1 | about 5 times | 0.20 | 0.34 | – | – | – | – | – | – |
| CCC(CCCCCC1NC(=O)C2CCCCN2C(=O)C(C(C)CC)NC(=O)C(Cc2cn(OC)c3ccccc23)NC1=O)=NN (stereo not shown) [Example 2, Hydrazone Derivative of Apicidin] | – | – | 4.27 to 18.2 (≈ 6.69 to 28.6 µM) | – | – | 4.27 to 18.2 (≈ 6.69 to 28.6 µM) | – | – | – | – | 3 | – | 0.20 | – | < 0.2 | 8.51 | 0.2 to 2.07 (≈ 0.314 to 3.25 µM) | < 0.2 | 16.3 (≈ 25.6 µM) | < 0.2 |
| CCC(CCCCCC1NC(=O)C2CCCCN2C(=O)C(C(C)CC)NC(=O)C(Cc2cn(OC)c3ccccc23)NC1=O)=NNC(C)(C)C (stereo not shown) [Example 3, tert-butylhydrazone Derivative of Apicidin] | – | – | 4.27 to 18.2 (≈ 6.15 to 26.3 µM) | – | – | 4.27 to 18.2 (≈ 6.15 to 26.3 µM) | – | – | – | – | 25 | – | 0.21 | – | < 0.2 | 4.27 | 0.2 to 2.07 (≈ 0.288 to 2.98 µM) | < 0.2 | 14.8 (≈ 21.3 µM) | < 0.2 |
| CCC(CCCCCC1NC(=O)C2CCCCN2C(=O)C(C(C)CC)NC(=O)C(Cc2cn(OC)c3ccccc23)NC1=O)=NNC(=O)NN (stereo not shown) [Example 4, Carbohydrazone Derivative of Apicidin] | – | – | – | – | – | – | – | – | – | – | 39 | – | – | – | – | – | – | – | – | – |
